Laboratory results taken from US9926319B2, “Pyridyl piperidines” (MERCK PATENT GMBH, priority 2014, dated 2018).
Where two headings read alike, the source gives them in different places.

Assays:
[1] = CLint (intrinsic clearance) assay, microsomal incubation; assay type: in vitro ADME, Human; settings: NADPH, 37° C., up to 30 min; for microsomal CLint at 0.8 μM: human, liver microsomes, pH 7.4, human liver microsomes 0.5 mg/mL protein; for Human Clint: human liver microsomes 0.5 mg/mL protein
Summary of the method: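 Test compound at 0.8 μM was incubated at 37 °C with liver microsomes at 0.5 mg/mL protein in 0.1 M potassium phosphate pH 7.4 with 1 mM MgCl2, NADPH-started, with no-cofactor controls. Acetonitrile quench at 0, 5, 10, 20 and 30 min, then LC-MS/MS peak-area decline. CLint (μL/min/mg protein) = k·1000/protein concentration.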

[2] = test system: Wnt pathway; test: Cellular assay for Wnt pathway activity (luciferase reporter cell based assay); settings: HEK293 luciferase reporter cell line (ER-DSH, TCF dependent promoter), induced with estrogen (1 μM), read-out: 7df3 IC50

| SMILES | microsomal CLint at 0.8 μM [1] | IC50 ([2]; 24 h) | Human Clint [1] | IC50 ([2]; 24 hours) |
| --- | --- | --- | --- | --- |
| Cn1ncc2cc(-c3cncc(Cl)c3N3CCC4(CC3)NC(=O)NC4=O)ccc21 [Example 2, 8-[3-Chloro-5-(1-methyl-1H-indazol-5-yl)-pyridin-4-yl]-1,3,8-triaza-spiro[4.5]decane-2,4-dione] | 15 µL/min/mg | 46 nM |  |  |
| O=C1NCCC12CCN(c1c(Cl)cncc1-c1ccc3c(c1)C(O)CS3(=O)=O)CC2 (centres unmarked) [Example 29, 8-[3-Chloro-5-(3-hydroxy-1,1-dioxo-2,3-dihydro-1H-1l6-benzo[b]thiophen-5-yl)-pyridin-4-yl]-2,8-diaza-spiro[4.5]decan-1-one] | 12 µL/min/mg | 16 nM |  |  |
| CC(C)n1cc(-c2ccc(-c3cncc(C(F)(F)F)c3N3CCC4(CC3)CNC(=O)O4)cc2)cn1 [Example 38, 8-{3-[4-(1-Isopropyl-1H-pyrazol-4-yl)-phenyl]-5-trifluoromethyl-pyridin-4-yl}-1-oxa-3,8-diaza-spiro[4.5]decan-2-one] | 16 µL/min/mg | 33 nM |  |  |
| CC(C)(C)N1Cc2cc(-c3cncc(Cl)c3N3CCC4(CCNC4=O)CC3)ccc2S1(=O)=O [Example 26, 8-[3-(2-tert-Butyl-1,1-dioxo-2,3-dihydro-1H-1l6-benzo[d]isothiazol-5-yl)-5-chloro-pyridin-4-yl]-2,8-diaza-spiro[4.5]decan-1-one] | 30 µL/min/mg | 20 nM |  |  |
| Cn1ncc2cc(-c3cncc(Cl)c3N3CCC4(CC3)C(=O)NCC4O)ccc21 (centres unmarked) [Example 70, 8-[3-Chloro-5-(1-methyl-1H-indazol-5-yl)-pyridin-4-yl]-4-hydroxy-2,8-diaza-spiro[4.5]decan-1-one] |  |  | 24 µL/min/mg | 20 nM |
| C[C@H]1NC(=O)OC12CCN(c1c(Cl)cncc1-c1ccc(-c3cnn(C)c3)cc1)CC2 [Example 100, (R)-8-{3-Chloro-5-[4-(1-methyl-1H-pyrazol-4-yl)-phenyl]-pyridin-4-yl}-4-methyl-1-oxa-3,8-diaza-spiro[4.5]decan-2-one] | 31 µL/min/mg | 37 nM |  |  |
| O=C1NCC2(CCN(c3c(Cl)cncc3-c3ccc(-c4cnn([C@H]5CCC[C@@H]5O)c4)cc3)CC2)O1 [Example 62, 8-(3-Chloro-5-{4-[1-((1S,2S)-2-hydroxy-cyclopentyl)-1H-pyrazol-4-yl]-phenyl}-pyridin-4-yl)-1-oxa-3,8-diaza-spiro[4.5]decan-2-one] | 37 µL/min/mg | 34 nM |  |  |
| CC(C)n1cc(-c2ccc(-c3cncc(Cl)c3N3CCC4(CC3)CNC(=O)O4)cc2)cn1 [Example 36, 8-{3-Chloro-5-[4-(1-isopropyl-1H-pyrazol-4-yl)-phenyl]-pyridin-4-yl}-1-oxa-3,8-diaza-spiro[4.5]decan-2-one] | 40 µL/min/mg | 22 nM |  |  |
| O=C1NCC2(CCN(c3c(Cl)cncc3-c3ccc(-c4cnn(C5COC5)c4)cc3)CC2)O1 [Example 55, 8-{3-Chloro-5-[4-(1-oxetan-3-yl-1H-pyrazol-4-yl)-phenyl]-pyridin-4-yl}-1-oxa-3,8-diaza-spiro[4.5]decan-2-one] | 23 µL/min/mg | 20 nM |  |  |

Further lines, results first:

| microsomal CLint at 0.8 μM [1] | IC50 ([2]; 24 h) | Human Clint [1] | IC50 ([2]; 24 hours) | SMILES |
| --- | --- | --- | --- | --- |
| 35 µL/min/mg | 4.3 nM |  |  | C[C@@H]1NC(=O)OC12CCN(c1c(Cl)cncc1-c1ccc3c(c1)CS(=O)(=O)N3C)CC2 [Example 98, (S)-8-[3-Chloro-5-(1-methyl-2,2-dioxo-2,3-dihydro-1H-2l6-benzo[c]isothiazol-5-yl)-pyridin-4-yl]-4-methyl-1-oxa-3,8-diaza-spiro[4.5]decan-2-one] |
| 60 µL/min/mg | 1.3 nM |  |  | Cn1nc(N)c2ccc(-c3cncc(Cl)c3N3CCC4(CC3)CC(=O)NC4=O)cc21 [Example 28, 8-[3-(3-Amino-1-methyl-1H-indazol-6-yl)-5-chloro-pyridin-4-yl]-2,8-diaza-spiro[4.5]decane-1,3-dione] |
| 44 µL/min/mg | 7.6 nM |  |  | O=C1NCCC12CCN(c1c(Cl)cncc1-c1ccc(-c3cnn([C@H]4CCC[C@@H]4O)c3)cc1)CC2 (racemic) [Example 56, 8-(3-Chloro-5-{4-[1-((1S,2S)-2-hydroxy-cyclopentyl)-1H-pyrazol-4-yl]-phenyl}-pyridin-4-yl)-2,8-diaza-spiro[4.5]decan-1-one] |
| 61 µL/min/mg | 3.9 nM |  |  | N#CCCn1cc(-c2ccc(-c3cncc(Cl)c3N3CCC4(CC3)CNC(=O)O4)cc2)cn1 [Example 40, 3-(4-{4-[5-Chloro-4-(2-oxo-1-oxa-3,8-diaza-spiro[4.5]dec-8-yl)-pyridin-3-yl]-phenyl}-pyrazol-1-yl)-propionitrile] |
| 39 µL/min/mg | 4.2 nM |  |  | CC1NC(=O)OC12CCN(c1c(Cl)cncc1-c1ccc3c(c1)CS(=O)(=O)N3C)CC2 (racemic) [Example 96, 8-[3-Chloro-5-(1-methyl-2,2-dioxo-2,3-dihydro-1H-2l6-benzo[c]isothiazol-5-yl)-pyridin-4-yl]-4-methyl-1-oxa-3,8-diaza-spiro[4.5]decan-2-one] |
| < 10 µL/min/mg | 5.1 nM |  |  | CN1c2ccc(-c3cncc(Cl)c3N3CCC(N)(C(N)=O)CC3)cc2CS1(=O)=O [Example 44, 4-Amino-5′-chloro-3′-(1-methyl-2,2-dioxo-2,3-dihydro-1H-2l6-benzo[c]isothiazol-5-yl)-3,4,5,6-tetrahydro-2H-[1,4′]bipyridinyl-4-carboxylic acid amide] |
| 23 µL/min/mg | 7 nM |  |  | Cn1cc(-c2ccc(-c3cncc(Cl)c3N3CCC(F)(C(N)=O)CC3)cc2)cn1 [Example 25, 5′-Chloro-4-fluoro-3′-[4-(1-methyl-1H-pyrazol-4-yl)-phenyl]-3,4,5,6-tetrahydro-2H-[1,4′]bipyridinyl-4-carboxylic acid amide] |
| 88 µL/min/mg | 0.6 nM |  |  | CN1c2ccc(-c3cncc(Cl)c3N3CCC(C#N)(CCO)CC3)cc2CS1(=O)=O [Example 33, 5′-Chloro-4-(2-hydroxy-ethyl)-3′-(1-methyl-2,2-dioxo-2,3-dihydro-1H-2l6-benzo[c]isothiazol-5-yl)-3,4,5,6-tetrahydro-2H-[1,4′]bipyridinyl-4-carbonitrile] |
|  | 11 nM | 11 µL/min/mg |  | Cn1cc(-c2ccc(-c3cncc(Cl)c3N3CCC4(CC3)NC(=O)CNC4=O)cc2)cn1 [Example 17, 9-{3-Chloro-5-[4-(1-methyl-1H-pyrazol-4-yl)-phenyl]-pyridin-4-yl}-1,4,9-triaza-spiro[5.5]undecane-2,5-dione] |
| < 10 µL/min/mg | 3.2 nM |  |  | Cn1cc(-c2ccc(-c3cncc(Cl)c3N3CCC4(CC3)NCNC4=O)cc2)cn1 [Example 88, 8-{3-Chloro-5-[4-(1-methyl-1H-pyrazol-4-yl)-phenyl]-pyridin-4-yl}-1,3,8-triaza-spiro[4.5]decan-4-one] |
| 23 µL/min/mg | 6.1 nM |  |  | O=C1NCC2(CCN(c3c(Cl)cncc3-c3ccc(-c4cnn(C5CC5)c4)cc3)CC2)O1 [Example 60, 8-{3-Chloro-5-[4-(1-cyclopropyl-1H-pyrazol-4-yl)-phenyl]-pyridin-4-yl}-1-oxa-3,8-diaza-spiro[4.5]decan-2-one] |
| < 10 µL/min/mg | 15 nM |  |  | O=C1CC2(CCN(c3c(Cl)cncc3-c3ccc4c(c3)CS(=O)(=O)N4)CC2)C(=O)N1 [Example 84, 8-[3-Chloro-5-(2,2-dioxo-2,3-dihydro-1H-2l6-benzo[c]isothiazol-5-yl)-pyridin-4-yl]-2,8-diaza-spiro[4.5]decane-1,3-dione] |
| 39 µL/min/mg | 5.2 nM |  |  | C[C@H]1NC(=O)OC12CCN(c1c(Cl)cncc1-c1ccc3c(c1)CS(=O)(=O)N3C)CC2 [Example 99, (R)-8-[3-Chloro-5-(1-methyl-2,2-dioxo-2,3-dihydro-1H-2l6-benzo[c]isothiazol-5-yl)-pyridin-4-yl]-4-methyl-1-oxa-3,8-diaza-spiro[4.5]decan-2-one] |
